Tests used:
Format in all cases: cell-based
[1] = tested on: Pseudomonas aeruginosa 23587; experiment: Antibiotic diffusion assay, levofloxacin plate versus water control plate; conditions: zone of inhibition in levofloxacin (5 mcg/ml) plate minus water control plate; Mueller Hinton Agar, 35° C. 20 hours
Description: Testing method for Inhibition of the Efflux Pumps of Pseudomonas aeruzinosa 23587, E. coli 2051, Streptococcus pneumoniae 3514 and Streptococcus pyozenus 26-00
Antibiotic Diffusion Assay
The activity of efflux pump inhibitor was also assessed using an antibiotic diffusion assay. For this assay Pseudomonas aeruginosa 23587 is used. Pseudomonas aeruginosa 23587 is a clinical isolate containing multiple efflux pumps which can be mexAB, mexCD, mexEF but not limited to mex classification only. Pseudomonas aeruginosa are grown in tryptic soya broth for 20 hours at 35° C. Two antibiotic assay plates are prepared in Mueller Hinton Agar using above inoculum. The bacterial count in a plate is 1×10^6 cells/ml. In one of the plates, levofloxacin is incorporated at 5 mcg/ml, while in the control plate an equivalent amount of water is added. […]. The plates are incubated at 35° C. for 20 hours and the zone of inhibition was recorded in mm (table 2). The difference in the diameter of zone of inhibition was calculated by subtracting from the diameter of the zone of inhibition in the levofloxacin containing plate the diameter of the zone of inhibition in the water containing control plate. Example, if the diameter of the zone of inhibition in the levofloxacin plate is X mm and the diameter of the zone of inhibition in the control plate is Y mm, the difference Z=X−Y and is a measure of the activity of the efflux pump inhibitor.

[2] = tested on: Mef Efflux Pump of Streptococcus pneumoniae 3514 and Streptococcus pyogenes 26-00; experiment: Two plate diffusion assay for macrolide (Mef) efflux pump inhibitors, azithromycin plate versus control plate; conditions: zone of inhibition in antibiotic plate (method: azithromycin 0.5 mcg/ml; footnote: levofloxacin) minus water control plate; strain not given
[3] = tested on: Staphylococcus aureus 1199 B NorA+; conditions: combination with ciprofloxacin, broth microdilution checkerboard, 35° C. 20 hours; FIC index ≦0.5 synergistic, 0.5–2.0 additive, >2.0 antagonistic
Method in brief: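 Broth microdilution checkerboard with ciprofloxacin against S. aureus 1199B NorA+, pump inhibitor titrated along one axis; inoculum 5×10^5 CFU/ml in Mueller Hinton broth, 35 °C for 20 hours. Growth read by visible turbidity, confirmed by plate reader; FIC index derived from inhibitor MIC in combination versus alone.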

Molecule: CCC1CN(c2nc3c(cc2F)c(=O)c(C(=O)O)cn3C2CC2)CCC1N (stereo not shown) [Example 20 (P. aeruginosa), 1-Cyclopropyl-6-fluoro-1,4-dihydro-7-(4′-amino-3′-ethylpiperidin-1-yl)-4-oxo-naphthyridine-3-carboxylic acid]
- Difference in Zone diameter Z1 (mm) [1]: 6 mm

Molecule: CC1CCc2c(N3CC[C@@H](O)[C@H](C)C3)c(F)cc3c(=O)c(C(=O)O)cn1c23 (mixture of isomers) [Example 33 (P. aeruginosa), (RS)-(+)-9-Fluoro-6,7-dihydro-8-(trans-4′-hydroxy-3′-methylpiperidin-1-yl)-5-methyl-1-oxo-1H,5H-benzo[i,j]quinolizine-2-carboxylic acid]
- Difference in Zone diameter Z1 (mm) [1]: 6 mm

Molecule: COc1c(N2CCC(N(C)C)CC2)c(F)cc2c(=O)c(C(=O)O)cn(C3CC3)c12 [Example 7 (P. aeruginosa), 1-Cyclopropyl-6-fluoro-8-methoxy-1,4-dihydro-7-{4′-dimethylaminopiperidin-1-yl}-4-oxo-quinoline-3-carboxylic acid]
- Difference in Zone diameter Z1 (mm) [1]: 5 mm

Molecule: COc1c(N2CCC(C)(O)CC2)c(F)cc2c(=O)c(C(=O)O)cn(C3CC3)c12 [Example 8 (P. aeruginosa), 1-Cyclopropyl-6-fluoro-8-methoxy-1,4-dihydro-7-(4′-hydroxy-4′-methylpiperidin-1-yl)-4-oxo-quinoline-3-carboxylic acid]
- Difference in Zone diameter Z1 (mm) [1]: 5 mm

Molecule: CC1CCc2c(N3CCC(OC(=O)[C@@H](N)CC(=O)O)CC3)c(F)cc3c(=O)c(C(=O)O)cn1c23.Cl (mixture of isomers) [Example 27 (P. aeruginosa), (RS)-(±)-9-Fluoro-6,7-dihydro-8-4′-(L-ot-aspartyloxy)piperidin-1-yl]-5-methyl-1-oxo-1H,5H-benzo[i,j]quinolizine-2-carboxylic acid hydrochloride]
- Difference in Zone diameter Z1 (mm) [2]: 6 mm
- Difference in Zone diameter Z1 (mm) [1]: 11 mm

Molecule: COc1c(N2CCC(O)C(C)(C)C2)c(F)cc2c(=O)c(C(=O)O)cn(C3CC3)c12 (stereo not shown) [Example 21 (NorA), 1-Cyclopropyl-6-fluoro-8-methoxy-1,4-dihydro-7-(4′-hydroxy-3′,3′-dimethylpiperidin-1-yl)-4-oxo-quinoline-3-carboxylic acid]
- Difference in Zone diameter Z1 (mm) [1]: 8 mm
- FIC INDEX [3]: 0.264

Molecule: CCN1C(C)CN(c2cc3c(cc2F)c(=O)c(C(=O)O)cn3C2CC2)CC1C (stereo not shown) [Example 16 (NorA), 1-Cyclopropyl-6-fluoro-1,4-dihydro-7-(3′,5′-dimethyl-4′-ethylpiperazin-1-yl)-4-oxo-quinoline-3-carboxylic acid]
- Difference in Zone diameter Z1 (mm) [1]: 8 mm
- FIC INDEX [3]: 0.314

Molecule: COC1CCN(c2cc3c(c(C)c2F)c(=O)c(C(=O)O)cn3C2CC2)CC1 [Example 1 (P. aeruginosa), 1-Cyclopropyl-6-fluoro-1,4-dihydro-5-methyl-7-(4′-methoxypiperidin-1-yl)-4-oxo-quinoline-3-carboxylic acid]
- Difference in Zone diameter Z1 (mm) [1]: 13 mm

Molecule: CCN1CCN(c2cc3c(cc2F)c(=O)c(C(=O)O)cn3C2CC2)CC1C (stereo not shown) [Example 13 (P. aeruginosa), 1-Cyclopropyl-6-fluoro-1,4-dihydro-7-(4′-ethyl-3′-methylpiperazin-1-yl)-4-oxo-quinoline-3-carboxylic acid]
- Difference in Zone diameter Z1 (mm) [1]: 4 mm

Molecule: O=C(O)c1cn(-c2ccc(F)cc2F)c2nc(NC3CCNCC3)c(F)cc2c1=O [Example 50 (NorA), 1-(2′,4′-Difluorophenyl)-6-fluoro-1,4-dihydro-7-(piperidin-4-yl-amino)-4-oxo-1,8-naphthyridine-3-carboxylic acid]
- Difference in Zone diameter Z1 (mm) [1]: 6 mm
- FIC INDEX [3]: 0.314

Molecule: CC1CN(c2c(F)cc3c(=O)c(C(=O)O)cn4c3c2CCC4C)CCC1O (racemic) [Example 34 (P. aeruginosa), (RS)-(+)-9-Fluoro-6,7-dihydro-8-(cis-4′-hydroxy-3′-methylpiperidin-1-yl}-5-methyl-1H,5H-benzo[i,j]quinolizine-2-carboxylic acid]
- Difference in Zone diameter Z1 (mm) [1]: 6 mm

Molecule: Cc1c(F)c(N2CCC(O)C(CN)C2)c(F)c2c1c(=O)c(C(=O)O)cn2C1CC1 (stereo not shown) [Example 25 (NorA), 1-Cyclopropyl-6,8-difluoro-5-methyl-1,4-dihydro-7-(4′-hydroxy-3′-aminomethylpiperidin-1-yl)-4-oxo-quinoline-3-carboxylic acid]
- Difference in Zone diameter Z1 (mm) [1]: 5 mm
- FIC INDEX [3]: 0.192

Molecule: COc1c(N2CCC(N)C(C)C2)c(F)c(N)c2c(=O)c(C(=O)O)cn(C3CC3)c12 (stereo not shown) [Example 4 (P. aeruginosa), 5-Amino-1-cyclopropyl-6-fluoro-8-methoxy-1,4-dihydro-7-(4′-amino-3′-methylpiperidin-1-yl)-4-oxo-quinoline-3-carboxylic acid]
- Difference in Zone diameter Z1 (mm) [1]: 5 mm

Molecule: CCC1CN(c2c(F)cc3c(=O)c(C(=O)O)cn4c3c2OCC4C)CCC1O (stereo not shown) [Example 36 (P. aeruginosa), 7H-Pyrido[1,2,3-de]-1,4-benzoxazine-9-fluoro-2,3-dihydro-3-methyl-10-(4′-hydroxy-3′-ethylpiperidin-1′-yl)-7-oxo-6-carboxylic acid]
- Difference in Zone diameter Z1 (mm) [2]: 5 mm
- Difference in Zone diameter Z1 (mm) [1]: 5 mm

Molecule: NCC1CN(c2c(F)c(N)c3c(=O)c(C(=O)O)cn(C4CC4)c3c2F)CCC1O (stereo not shown) [Example 11 (P. aeruginosa), 5-Amino-1-(cyclopropyl)-6,8-difluoro-1,4-dihydro-7-(3′-aminomethyl-4′-hydroxy-piperidin-1-yl)-4-oxo-quinoline-3-carboxylic acid]
- Difference in Zone diameter Z1 (mm) [1]: 3 mm

Molecule: CCNC1CCN(c2c(F)c(N)c3c(=O)c(C(=O)O)cn(C4CC4)c3c2OC)CC1(C)C (stereo not shown) [Example 5 (P. aeruginosa), 5-Amino-1-cyclopropyl-6-fluoro-8-methoxy-1,4-dihydro-7-{3′,3′-dimethyl-4′-ethylaminopiperidin-1-yl}-4-oxo-quinoline-3-carboxylic acid]
- Difference in Zone diameter Z1 (mm) [1]: 3 mm

Molecule: O=C(O)c1cn(C2CC2)c2nc(NC3CCNC3)c(F)cc2c1=O (stereo not shown) [Example 49 (NorA), 1-Cyclopropyl-6-fluoro-1,4-dihydro-7-(pyrrolidin-3-yl-amino)-4-oxo-1,8naphthyridine-3-carboxylic acid]
- Difference in Zone diameter Z1 (mm) [1]: 6 mm
- FIC INDEX [3]: 0.188

Molecule: (S)-(−)-9-Fluoro-6,7-dihydro-8-(4′-hydroxypiperidin-1-yl)-5-methyl-1-oxo-1H,5H-benzo[i,j]quinolizine-2-carboxylic acid. (L) histidine salt [Example 25 (P. aeruginosa)]
- Difference in Zone diameter Z1 (mm) [1]: 5 mm

Molecule: CCOC(=O)C1(N)CCN(c2c(F)c(N)c3c(=O)c(C(=O)O)cn(C4CC4)c3c2F)C1 (stereo not shown) [Example 17 (P. aeruginosa)]
- Difference in Zone diameter Z1 (mm) [1]: 8 mm

Molecule: Nc1c(F)c(N2CCC(N)C2)c(F)c2c1c(=O)c(C(=O)O)cn2-c1ccc(F)cc1F (stereo not shown) [Example 16 (P. aeruginosa), 5-Amino-1-(2′,4′-difluorophenyl)-6,8-difluoro-1,4-dihydro-7-(3-aminopyrrolidine-1-yl)-4-oxo-quinoline-3-carboxylic acid]
- Difference in Zone diameter Z1 (mm) [1]: 3 mm

Molecule: CCn1cc(C(=O)O)c(=O)c2cc(F)c(N3CC4C(N)C4C3)c(F)c21 (stereo not shown) [Example 4 (NorA), 1-Ethyl-6,8-difluoro-1,4-dihydro-7-{(1∝,5∝,6∝)-6-amino-3-azabicyclo[3.1.01]-hex-3-yl}-4-oxo-quinoline-3-carboxylic acid]
- Difference in Zone diameter Z1 (mm) [1]: 7 mm
- FIC INDEX [3]: 0.192

Molecule: C[C@H](N)C(=O)OC1CCN(c2c(F)cc3c(=O)c(C(=O)O)cn4c3c2CC[C@@H]4C)CC1.Cl [Example 30 (P. aeruginosa), (S)-(−)-9-Fluoro-6,7-dihydro-8-{4′-(L-alanyloxy)piperidin-1-yl}-5-methyl-1-oxo-1H,5H-benzo[i,j]quinolizine-2-carboxylic acid hydrochloride]
- Difference in Zone diameter Z1 (mm) [1]: 9 mm

Molecule: C[C@@H]1CCc2c(N3CCC(OC(=O)[C@H](N)Cc4ccccc4)CC3)c(F)cc3c(=O)c(C(=O)O)cn1c23.Cl (racemic) [Example 26 (P. aeruginosa), (RS)-(±)-9-Fuoro-6,7-dihydro-8-{4′-(D-phenylalaninoxy)piperidin-1-yl}-5-methyl-1-oxo-1H,5H-benzo[i,j]quinolizine-2-carboxylic acid hydrochloride]
- Difference in Zone diameter Z1 (mm) [1]: 12 mm

From patent publication US7098219B2, “Inhibitors of cellular efflux pumps of microbes” (Wockhart Limited, priority 2000, dated 2006)
